# In patent US20260317324A1, “BIFUNCTIONAL COMPOUNDS FOR DEGRADING BRAF VIA UBIQUITIN PROTEOSOME PATHWAY” (Nurix Therapeutics, Inc., priority 2023, published 2026):
# Target: T1, BRAF V600E (Homo sapiens, UniProt P15056, V600E)
# T1 construct: endogenous C-terminal HiBiT fusion tag on BRAF V600E allele; endogenous in cells; host or cells: A375 clone 1F10 (CRISPR-Cas9 knock-in of the HiBiT tag; parental A375 from ATCC)
# Test: BRAF HiBiT degradation assay, C-terminal HiBiT-tagged BRAF V600E A375 cells (clone 1F10), Nano-Glo HiBiT Lytic assay
# Format: cell-based
# Settings: A375 (BRAF V600E); for DC50: DC50 at 50%: fitted conc. at Y=50; for Dmax: A-375, percentage protein degraded at maximal compound effect relative to DMSO
# In short: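 Steps: seed HiBiT-tagged A375 clone 1F10 cells; incubate 24 h, 37 °C, 5% CO2; add compound (11 half-log points from 1 μM, 0.2% DMSO); lyse with HiBiT detection reagent plus LgBiT for 10 min; read luminescence; fit % protein remaining against concentration.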
# T1 sequence (P15056 whole entry V600E, the tested form may be a part): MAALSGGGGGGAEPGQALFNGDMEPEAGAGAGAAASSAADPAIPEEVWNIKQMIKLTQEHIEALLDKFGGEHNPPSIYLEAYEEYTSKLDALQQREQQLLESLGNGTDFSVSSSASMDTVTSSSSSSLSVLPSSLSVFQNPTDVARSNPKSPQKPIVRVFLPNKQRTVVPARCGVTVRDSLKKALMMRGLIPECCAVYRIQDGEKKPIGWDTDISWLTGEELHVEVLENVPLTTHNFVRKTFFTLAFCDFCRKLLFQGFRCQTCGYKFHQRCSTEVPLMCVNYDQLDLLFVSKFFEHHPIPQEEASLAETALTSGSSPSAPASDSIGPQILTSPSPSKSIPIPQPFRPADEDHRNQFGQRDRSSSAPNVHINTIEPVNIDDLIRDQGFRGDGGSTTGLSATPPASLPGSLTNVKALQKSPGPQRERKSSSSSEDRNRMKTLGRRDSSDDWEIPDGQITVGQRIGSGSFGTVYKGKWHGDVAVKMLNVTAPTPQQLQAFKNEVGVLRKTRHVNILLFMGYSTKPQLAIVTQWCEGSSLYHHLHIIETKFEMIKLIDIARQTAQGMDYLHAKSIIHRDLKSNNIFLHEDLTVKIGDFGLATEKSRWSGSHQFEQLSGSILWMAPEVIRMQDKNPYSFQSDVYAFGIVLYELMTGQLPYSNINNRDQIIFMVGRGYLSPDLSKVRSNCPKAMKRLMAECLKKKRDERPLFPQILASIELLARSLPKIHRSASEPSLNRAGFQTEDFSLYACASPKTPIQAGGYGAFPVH
SMILES,DC50 [µM],Dmax [%]
"CCCS(=O)(=O)Nc1cccc(-c2nc(C(C)(C)C)sc2-c2ccnc(Nc3ccc(C4CCN(C[C@H]5CC[C@H](Oc6ccc(C7CCC(=O)NC7=O)cn6)CC5)CC4)cc3)n2)c1F (mixture of isomers) [Compound 168, N-{3-[2-tert-butyl-5-(2-{[4-(1-{[(1r,4r)-4-({5-[(3RS)-2,6-dioxopiperidin-3-yl]pyridin-2-yl}oxy)cyclohexyl]methyl}piperidin-4-yl)phenyl]amino}pyrimidin-4-yl)-1,3-thiazol-4-yl]-2-fluorophenyl}propane-1-sulfonamide]",0.01 to 0.05,> 70
"CCCS(=O)(=O)Nc1cccc(-c2nc(C3(C)CCN(C(=O)C4CCN(CC5CCN(c6ccc(C7CCC(=O)NC7=O)cn6)CC5)CC4)CC3)sc2-c2ccnc(N)n2)c1F (racemic) [Compound 218, Rac-N-{3-[5-(2-aminopyrimidin-4-yl)-2-(1-{1-[(1-{5-[(3R)-2,6-dioxopiperidin-3-yl]pyridin-2-yl}piperidin-4-yl)methyl]piperidine-4-carbonyl}-4-methylpiperidin-4-yl)-1,3-thiazol-4-yl]-2-fluorophenyl}propane-1-sulfonamide]",0.05 to 0.5,> 70
"CCCS(=O)(=O)Nc1cccc(-c2nc(C(C)(C)C)sc2-c2ccnc(Nc3cccc(C4CCN(C(=O)CN5CCC(c6ccc(NC7CCC(=O)NC7=O)cc6)CC5)CC4)c3)n2)c1F (racemic) [Compound 103, Rac-N-{3-[2-tert-butyl-5-(2-{[3-(1-{2-[4-(4-{[(3R)-2,6-dioxopiperidin-3-yl]amino}phenyl)piperidin-1-yl]acetyl}piperidin-4-yl)phenyl]amino}pyrimidin-4-yl)-1,3-thiazol-4-yl]-2-fluorophenyl}propane-1-sulfonamide]",0.01 to 0.05,30 to 70
"CCCS(=O)(=O)Nc1cccc(-c2nc(C(C)(C)C)sc2-c2ccnc(N[C@H]3CC[C@H](CN4CCN(CC5CCN(c6ccc([C@@H]7CCC(=O)NC7=O)cc6)CC5)CC4)CC3)n2)c1F [Compound 139, N-{3-[2-tert-butyl-5-(2-{[(1r,4r)-4-({4-[(1-{4-[(3S)-2,6-dioxopiperidin-3-yl]phenyl}piperidin-4-yl)methyl]piperazin-1-yl}methyl)cyclohexyl]amino}pyrimidin-4-yl)-1,3-thiazol-4-yl]-2-fluorophenyl}propane-1-sulfonamide]",0.01 to 0.05,30 to 70
"CCCS(=O)(=O)Nc1cccc(-c2nc(C(C)(C)C)sc2-c2ccnc(Nc3cccc(OC4CCN(C(=O)[C@H]5CC[C@H](Oc6ccc(C7CCC(=O)NC7=O)cc6)CC5)CC4)c3)n2)c1F (mixture of isomers) [Compound 98, N-{3-[2-tert-butyl-5-(2-{[3-({1-[(1r,4r)-4-{4-[(3RS)-2,6-dioxopiperidin-3-yl]phenoxy}cyclohexanecarbonyl]piperidin-4-yl}oxy)phenyl]amino}pyrimidin-4-yl)-1,3-thiazol-4-yl]-2-fluorophenyl}propane-1-sulfonamide]",0.01 to 0.05,30 to 70
"CCCS(=O)(=O)Nc1cccc(-c2nc(C(C)(C)C)sc2-c2ccnc(Nc3cccc(OC4CCN(C(=O)C5CCN(c6cccc(C7CCC(=O)NC7=O)c6)CC5)CC4)c3)n2)c1F (racemic) [Compound 99, Rac-N-[3-(2-tert-butyl-5-{2-[(3-{[1-(1-{3-[(3R)-2,6-dioxopiperidin-3-yl]phenyl}piperidine-4-carbonyl)piperidin-4-yl]oxy}phenyl)amino]pyrimidin-4-yl}-1,3-thiazol-4-yl)-2-fluorophenyl]propane-1-sulfonamide]",0.01 to 0.05,30 to 70
"CCCS(=O)(=O)Nc1cccc(-c2nc(C3CCN(C(=O)C4CCN(C(=O)C5CCN(c6ccc([C@@H]7CCC(=O)NC7=O)cc6)CC5)CC4)CC3)sc2-c2ccncc2)c1F [Compound 200, N-[3-(2-{1-[1-(1-{4-[(3S)-2,6-dioxopiperidin-3-yl]phenyl}piperidine-4-carbonyl)piperidine-4-carbonyl]piperidin-4-yl}-5-(pyridin-4-yl)-1,3-thiazol-4-yl)-2-fluorophenyl]propane-1-sulfonamide]",0.01 to 0.05,> 70
"CCCS(=O)(=O)Nc1cccc(-c2nc(C3CCN(C(=O)C4CCN(C(=O)C5CCN(c6ccc(C7CCC(=O)NC7=O)cc6)CC5)CC4)CC3)sc2-c2ccncn2)c1F (racemic) [Compound 199, Rac-N-[3-(2-{1-[1-(1-{4-[(3R)-2,6-dioxopiperidin-3-yl]phenyl}piperidine-4-carbonyl)piperidine-4-carbonyl]piperidin-4-yl}-5-(pyrimidin-4-yl)-1,3-thiazol-4-yl)-2-fluorophenyl]propane-1-sulfonamide]",< 0.01,> 70
"CCCS(=O)(=O)Nc1cccc(-c2cn(C3CCN(C(=O)C4CCN(C(=O)C5CCN(c6ccc(C7CCC(=O)NC7=O)cc6)CC5)CC4)CC3)nc2-c2ccncc2)c1F (racemic) [Compound 9, Rac-N-[3-(1-{1-[1-(1-{4-[(3R)-2,6-dioxopiperidin-3-yl]phenyl}piperidine-4-carbonyl)piperidine-4-carbonyl]piperidin-4-yl}-3-(pyridin-4-yl)-1H-pyrazol-4-yl)-2-fluorophenyl]propane-1-sulfonamide]",0.05 to 0.5,> 70
"CCCS(=O)(=O)Nc1cccc(-c2nc(C(C)(C)C)sc2-c2ccnc(Nc3ccc(C4CCN(C(=O)C[C@@H]5CCN(c6ccc(C7CCC(=O)NC7=O)cc6)C5)CC4)cc3)n2)c1F (mixture of isomers) [Compound 166, N-{3-[2-tert-butyl-5-(2-{[4-(1-{2-[(3S)-1-{4-[(3RS)-2,6-dioxopiperidin-3-yl]phenyl}pyrrolidin-3-yl]acetyl}piperidin-4-yl)phenyl]amino}pyrimidin-4-yl)-1,3-thiazol-4-yl]-2-fluorophenyl}propane-1-sulfonamide]",0.05 to 0.5,30 to 70
"CCCS(=O)(=O)Nc1cccc(-c2nc(C(C)(C)C)sc2-c2ccnc(Nc3cnn(C4CCN(CC[C@@H]5CCN(c6ccc(C7CCC(=O)NC7=O)cn6)C5)CC4)c3)n2)c1F (mixture of isomers) [Compound 78, N-{3-[2-tert-butyl-5-(2-{[1-(1-{2-[(3R)-1-{5-[(3RS)-2,6-dioxopiperidin-3-yl]pyridin-2-yl}pyrrolidin-3-yl]ethyl}piperidin-4-yl)-1H-pyrazol-4-yl]amino}pyrimidin-4-yl)-1,3-thiazol-4-yl]-2-fluorophenyl}propane-1-sulfonamide]",0.01 to 0.05,> 70
"CCCS(=O)(=O)Nc1cccc(-c2nc(C(C)(C)C)sc2-c2ccnc(Nc3ccc(C4CCN(C(=O)CCCC(=O)N[C@H](C(=O)N5C[C@H](O)C[C@H]5C(=O)N[C@@H](C)c5ccc(-c6scnc6C)cc5)C(C)(C)C)CC4)cc3)n2)c1F [Compound 86, (2S,4R)-1-[(2S)-2-[5-(4-{4-[(4-{2-tert-butyl-4-[2-fluoro-3-(propane-1-sulfonamido)phenyl]-1,3-thiazol-5-yl}pyrimidin-2-yl)amino]phenyl}piperidin-1-yl)-5-oxopentanamido]-3,3-dimethylbutanoyl]-4-hydroxy-N-[(1S)-1-[4-(4-methyl-1,3-thiazol-5-yl)phenyl]ethyl]pyrrolidine-2-carboxamide]",0.05 to 0.5,30 to 70
